Measurements published in US11547681B2, “N-acylethanolamide derivatives and uses thereof” (ELIEM THERAPEUTICS, INC., priority 2016, dated 2023).

What was measured:
in vitro [1] = conditions: for Measured concentration of analyte PEA, 0 min / Measured concentration of analyte PEA, 10 min / Measured concentration of analyte PEA, 20 min / Measured concentration of analyte PEA, 30 min / Measured concentration of analyte PEA, 60 min / % Remaining of Initial, 0 min / % Remaining of Initial, 10 min / % Remaining of Initial, 20 min / % Remaining of Initial, 30 min / % Remaining of Initial, 60 min: 1 μM; for % Remaining of Initial, 0 min / % Remaining of Initial, 10 min / % Remaining of Initial, 20 min / % Remaining of Initial, 30 min / % Remaining of Initial, 60 min / microsomal CLint at 1 μM / half-life at 1 μM: microsomes; for % Remaining of Initial, 0 min: 0 h; for % Remaining of Initial, 30 min: 0.5 h; for % Remaining of Initial, 60 min: 1 h
Procedure: The reaction mixture, minus cofactors, was prepared as described below. The test article was added into the reaction mixture at a final concentration of 1 μM. […] An aliquot of the reaction mixture (without cofactor) was equilibrated in a shaking water bath at 37° C. for 3 minutes. The reaction was initiated by the addition of cofactor, and the mixture was incubated in a shaking water bath at 37° C. Aliquots (100 μL) were withdrawn at 0, 10, 20, 30, and 60 minutes. All samples were immediately combined with 400 μL of ice-cold 50/50 acetonitrile/H2O containing 0.1% formic acid and internal standard to terminate the reaction. The samples were then mixed and centrifuged to precipitate proteins. Calibration standards were prepared in matched matrix. All samples and standards were assayed by LC-MS/MS using electrospray ionization for both the dosed prodrug I-9 and the expected drug (PEA). Analytical conditions are outlined in Appendix 4-1. The test article concentration at each time point was compared to the test article concentration at time 0 to determine the percent remaining at each time point. Half-lives were calculated using GraphPad software, fitting to a single-phase exponential decay equation.
(§1) Reaction mixture, minus cofactors, was prepared as described below. Test article was added into the reaction mixture at a final concentration of 1 μM. […] An aliquot of the reaction mixture (without cofactor) was equilibrated in a shaking water bath at 37° C. for 3 minutes. The reaction was initiated by the addition of cofactor, and the mixture was incubated in a shaking water bath at 37° C. Aliquots (100 μL) were withdrawn at 0, 10, 20, 30, and 60 minutes. Test article samples were immediately combined with 300 μL of ice-cold acetonitrile containing 1% formic acid. Control samples were immediately combined with 400 μL of ice-cold 50/50 acetonitrile (ACN)/dH2O containing 0.1% formic acid and internal standard to terminate the reaction. Samples were then mixed and centrifuged to precipitate proteins. Calibration standards were prepared in matched matrix. Samples and standards were assayed by LC-MS/MS using electrospray ionization for both dosed prodrug and expected drug (PEA). Analytical conditions are outlined in Appendix 8-1. Test article concentration at each time point was compared to test article concentration at time 0 to determine the percent remaining at each time point. Half-lives were calculated using GraphPad software, fitting to a single-phase exponential decay equation.
(§2) Reaction mixture, minus cofactors, was prepared as described below. Test article was added into the reaction mixture at a final concentration of 1 μM. […] An aliquot of the reaction mixture (without cofactor) was equilibrated in a shaking water bath at 37° C. for 5 minutes. Reaction was initiated by the addition of cofactor, and the mixture was incubated in a shaking water bath at 37° C. Aliquots (100 μL) were withdrawn at 0, 10, 20, 30, and 60 minutes. Test article samples were immediately combined with 300 μL of ice-cold acetonitrile containing 1% formic acid. Control samples were immediately combined with 400 μL of ice-cold 50/50 acetonitrile (ACN)/dH2O containing 0.1% formic acid and internal standard to terminate the reaction. Samples were then mixed and centrifuged to precipitate proteins. Calibration standards were prepared in matched matrix. Samples and standards were assayed by LC-MS/MS using electrospray ionization for both the dosed prodrug and the expected drug (PEA). Analytical conditions are outlined in Appendix 10-1. Test article concentration at each time point was compared to the test article concentration at time 0 to determine the percent remaining at each time point. Half-lives were calculated using GraphPad software, fitting to a single-phase exponential decay equation.
Reaction mixture, minus cofactors, was prepared as described below. Test article was added into the reaction mixture at a final concentration of 1 μM.

in vitro [2] = conditions: male; for Measured concentration of analyte PEA, 0 min / Measured concentration of analyte PEA, 10 min / Measured concentration of analyte PEA, 20 min / Measured concentration of analyte PEA, 30 min / Measured concentration of analyte PEA, 60 min / % Remaining of Initial, 0 min / % Remaining of Initial, 10 min / % Remaining of Initial, 20 min / % Remaining of Initial, 30 min / % Remaining of Initial, 60 min: 1 μM; for % Remaining of Initial, 0 min / % Remaining of Initial, 10 min / % Remaining of Initial, 20 min / % Remaining of Initial, 30 min / % Remaining of Initial, 60 min / microsomal CLint at 1 μM / half-life at 1 μM: microsomes; for % Remaining of Initial, 0 min: 0 h; for % Remaining of Initial, 30 min: 0.5 h; for % Remaining of Initial, 60 min: 1 h
Procedure: as §1, §2
as §1, with “minutes. Reaction” for “minutes. The reaction”, “300 μL,” for “300 μL”, “Appendix 13-1.” for “Appendix 8-1.”
Reaction mixture, minus cofactors, was prepared as described below.

Q: Which results are given for `CCCCC/C=C\C/C=C\CCCCCCCC(=O)OCCNC(=O)CCCCCCCCCCCCCCC` [Compound I-6]?
A: Measured concentration of analyte PEA, 0 min (in vitro [1]; both, human): 0 µM; Measured concentration of analyte PEA, 10 min (in vitro [1]; both, human): 0 µM; Measured concentration of analyte PEA, 20 min (in vitro [1]; both, human): 0 µM; Measured concentration of analyte PEA, 30 min (in vitro [1]; both, human): 0 µM; Measured concentration of analyte PEA, 60 min (in vitro [1]; both, human): 0 µM; % Remaining of Initial, 0 min (in vitro [1]; both, human): 100%; % Remaining of Initial, 10 min (in vitro [1]; both, human): 82%; % Remaining of Initial, 20 min (in vitro [1]; both, human): 58%; % Remaining of Initial, 30 min (in vitro [1]; both, human): 66%; % Remaining of Initial, 60 min (in vitro [1]; both, human): 68%; microsomal CLint at 1 μM (in vitro [1]; both, human): < 23.1 µL/min/mg; microsomal CLint at 1 μM (in vitro [1]; both, human, calculated value in parentheses): 14.3 µL/min/mg; half-life at 1 μM (in vitro [1]; both, human, Calculated half-life (in parentheses)): 97 min; half-life at 1 μM (in vitro [1]; both, human, Half-life): > 60 min; Measured concentration of analyte PEA, 0 min (in vitro [1]; male, Sprague-Dawley, rat): 0.14 µM; Measured concentration of analyte PEA, 10 min (in vitro [1]; male, Sprague-Dawley, rat): 0.064 µM; Measured concentration of analyte PEA, 20 min (in vitro [1]; male, Sprague-Dawley, rat): 0.017 µM; Measured concentration of analyte PEA, 30 min (in vitro [1]; male, Sprague-Dawley, rat): 0.0098 µM; Measured concentration of analyte PEA, 60 min (in vitro [1]; male, Sprague-Dawley, rat): 0.0012 µM; % Remaining of Initial, 0 min (in vitro [1]; male, Sprague-Dawley, rat): 100%; % Remaining of Initial, 10 min (in vitro [1]; male, Sprague-Dawley, rat): 68%; % Remaining of Initial, 20 min (in vitro [1]; male, Sprague-Dawley, rat): 67%; % Remaining of Initial, 30 min (in vitro [1]; male, Sprague-Dawley, rat): 62%; % Remaining of Initial, 60 min (in vitro [1]; male, Sprague-Dawley, rat): 53%; microsomal CLint at 1 μM (in vitro [1]; male, Sprague-Dawley, rat): < 23.1 µL/min/mg; microsomal CLint at 1 μM (in vitro [1]; male, Sprague-Dawley, rat, calculated value in parentheses): 21.9 µL/min/mg; half-life at 1 μM (in vitro [1]; male, Sprague-Dawley, rat, Calculated half-life (in parentheses)): 63 min; half-life at 1 μM (in vitro [1]; male, Sprague-Dawley, rat, Half-life): > 60 min; Measured concentration of analyte PEA, 0 min (in vitro [2]; Beagle, dog): 0.030 µM; Measured concentration of analyte PEA, 10 min (in vitro [2]; Beagle, dog): 0.087 µM; Measured concentration of analyte PEA, 20 min (in vitro [2]; Beagle, dog): 0.091 µM; Measured concentration of analyte PEA, 30 min (in vitro [2]; Beagle, dog): 0.080 µM; Measured concentration of analyte PEA, 60 min (in vitro [2]; Beagle, dog): 0.084 µM; % Remaining of Initial, 0 min (in vitro [2]; Beagle, dog): 100%; % Remaining of Initial, 10 min (in vitro [2]; Beagle, dog): 103%; % Remaining of Initial, 20 min (in vitro [2]; Beagle, dog): 100%; % Remaining of Initial, 30 min (in vitro [2]; Beagle, dog): 91%; % Remaining of Initial, 60 min (in vitro [2]; Beagle, dog): 77%; microsomal CLint at 1 μM (in vitro [2]; Beagle, dog): < 23.1 µL/min/mg; half-life at 1 μM (in vitro [2]; Beagle, dog, Half-life): > 60 min; Measured concentration of analyte PEA, 0 min (in vitro [2]; CD-1, mouse): 0.022 µM; Measured concentration of analyte PEA, 10 min (in vitro [2]; CD-1, mouse): 0.055 µM; Measured concentration of analyte PEA, 20 min (in vitro [2]; CD-1, mouse): 0.039 µM; Measured concentration of analyte PEA, 30 min (in vitro [2]; CD-1, mouse): 0.041 µM; Measured concentration of analyte PEA, 60 min (in vitro [2]; CD-1, mouse): 0.027 µM; % Remaining of Initial, 0 min (in vitro [2]; CD-1, mouse): 100%; % Remaining of Initial, 10 min (in vitro [2]; CD-1, mouse): 84%; % Remaining of Initial, 20 min (in vitro [2]; CD-1, mouse): 74%; % Remaining of Initial, 30 min (in vitro [2]; CD-1, mouse): 73%; % Remaining of Initial, 60 min (in vitro [2]; CD-1, mouse): 61%; microsomal CLint at 1 μM (in vitro [2]; CD-1, mouse): < 23.1 µL/min/mg; microsomal CLint at 1 μM (in vitro [2]; CD-1, mouse, calculated value in parentheses): 16.4 µL/min/mg; half-life at 1 μM (in vitro [2]; CD-1, mouse, Calculated half-life (in parentheses)): 84 min; half-life at 1 μM (in vitro [2]; CD-1, mouse, Half-life): > 60 min
